{
  "source": "paper PMC12418948",
  "about": "“Intranasal Administration of KCNN2 Blocking Peptide Improves Deficits in Cognitive Flexibility in Mouse Model of Fetal Alcohol Spectrum Disorders” (International Journal of Neuropsychopharmacology, 2025)",
  "key": {"[1]": {"tested_on": "neurodevelopmental disorders such as autism spectrum disorder", "details": "nasal application; cited from earlier work", "text": "(§1) The potential of intranasal delivery in treating a broad spectrum of neurological disorders, especially those related to memory and cognition, is noteworthy.[28] Historically, intranasal administration has gained attention in clinical trials as an effective delivery method, especially for small molecules ..."}, "[2]": {"tested_on": "older adults affected by Alzheimer disease or mild cognitive impairment", "details": "intranasal; older adults with Alzheimer disease or mild cognitive impairment; cited from earlier work", "text": "as §1"}, "[3]": {"details": "intranasal vs subcutaneous or intramuscular administration; cited from earlier work", "text": "as §1"}, "KCNN2": {"tested_on": "KCNN2", "details": "compared with Lei-Dab7; cited from earlier work", "text": "KCNN2 plays a key role in regulating neuronal excitability by controlling the medium afterhyperpolarization.[20] Previous studies have shown that KCNN2 blockers have therapeutic effects to improve learning and memory in several mouse and rat models of neuropsychiatric disorders associated with increased KCNN2 expression.[21–24] […] In the current study, we used another KCNN2 blocker, Lei-Dab7 (a synthetic derivative of leiurotoxin), a peptide isolated from the venom of the yellow scorpion (L. quinquestriatus hebraeus). […] We evaluated intranasal administ ... || Taken together, our findings advocate for the therapeutic potential of Lei-Dab7 or other KCNN2 blockers for FASD and possibly other neurodevelopmental diseases that similarly involve KCNN2 upregulation, such as Angelman syndrome.[21] Lei-Dab7 stands out for its high potency and specificity in blocking the KCNN2 channel. […] Despite outstanding properties, Lei-Dab7’s bioavailability, efficacy, and toxicity as a the ..."}, "rat": {"tested_on": "rat", "design": "method as in 2 sources, one per row (each row's own in cited_ref): ref 82 = [82]; PMID 15985330; doi:10.1016/j.neulet.2005.05.050; 82. Deschaux O , Bizot JC . Apamin produces selective improvements of learning in rats . Neurosci Lett. 2005; 386 : 5 – 8 . 10.1016/j.neulet.2005.05.050 15985330 ||| ref 26, 82, 83 = [26]; PMID 18561910; doi:10.1016/j.ejphar.2008.05.019; 26. Mpari B , Sreng L , Regaya I , Mourre C . Small-conductance Ca(2+)-activated K(+) channels: heterogeneous affinity in rat brain structures and cognitive modulation by specific blockers . Eur J Pha || [82]; PMID 15985330; doi:10.1016/j.neulet.2005.05.050; 82. Deschaux O , Bizot JC . Apamin produces selective improvements of learning in rats . Neurosci Lett. 2005; 386 : 5 – 8 . 10.1016/j.neulet.2005.05.050 15985330 || [83]; PMID 9148239; doi:10.1016/s0304-3940(97)13367-5; 83. Deschaux O , Bizot JC , Goyffon M . Apamin improves learning in an object recognition task in rats . Neurosci Lett. 1997; 222 : 159 – 162 . 10.1016/s0304-3940(97)13367-5 9148239", "details": "cited from earlier work"}, "KCNN (SK) channel": {"tested_on": "KCNN (SK) channel", "details": "cited from earlier work"}, "human KCNN2": {"target": "human KCNN2 (Homo sapiens, UniProt Q9H2S1)", "sequence (Q9H2S1 whole entry)": "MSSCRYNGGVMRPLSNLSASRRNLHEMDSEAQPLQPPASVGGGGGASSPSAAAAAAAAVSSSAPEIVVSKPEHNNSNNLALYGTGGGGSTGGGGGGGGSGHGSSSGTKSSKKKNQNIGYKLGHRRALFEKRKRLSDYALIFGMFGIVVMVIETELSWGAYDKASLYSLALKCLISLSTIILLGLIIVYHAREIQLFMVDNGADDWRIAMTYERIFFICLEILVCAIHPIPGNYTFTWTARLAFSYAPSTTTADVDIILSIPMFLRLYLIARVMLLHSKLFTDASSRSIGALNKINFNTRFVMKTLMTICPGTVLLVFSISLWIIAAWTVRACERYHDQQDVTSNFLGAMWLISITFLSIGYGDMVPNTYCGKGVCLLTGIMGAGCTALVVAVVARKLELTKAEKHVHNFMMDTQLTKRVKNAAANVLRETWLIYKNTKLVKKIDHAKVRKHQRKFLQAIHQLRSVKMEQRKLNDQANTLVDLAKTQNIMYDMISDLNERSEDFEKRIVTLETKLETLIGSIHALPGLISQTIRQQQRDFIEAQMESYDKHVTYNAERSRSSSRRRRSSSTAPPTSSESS", "experiment": "Thallium flux assay, KCNN2 channel block", "assay_type": "cell-based", "details": "HEK293 stably expressing human KCNN2; thallium flux, FLIPR Potassium Assay Kit, FLIPR TETRA; 4 concentrations, n = 4; 0% = 1 μM A23187, 100% = 3 μM UCL1684", "method": "The effect of tamapin and Lei-Dab7 to block the KCNN2 channel was assessed by the thallium flux (potassium ion surrogate) assay using FLIPR Potassium Assay KIT (Molecular Devices, CA) and a FLIPR TETRA fluorescence imaging plate reader (Molecular Devices, CA). Human embryonic kidney (HEK) 293 cell line stably expressing human KCNN2 (Charles River, MA) were plated on BioCoat Poly-D-Lysine 384-well Black/Clear Plates (BD Biosciences, NJ) at 15 000 to 30 000 cells per well and incubated at 37°C overnight or until cells form near confluent monolayer. A baseline fluorescence was recorded during the pre-incubation period, followed by activation in the stimulus buffer (K^+-free buffer with 5 mM Tl^+). The effects of tamapin and Lei-Dab7 on KCNN2 to inhibit KCNN2 channel were evaluated at 4 different concentrations (n = 4) each, based on fluorescence changes due to the treatments. The signal elicited by the respective positive control agonist [1 μM A23187 (Tocris, UK)] was set to 0% inhibition, and the signal in the presence of the respective positive control antagonists [3 μM UCL1684 (Tocris, UK)] was set to 100% inhibition. The IC50 values were defined as the concentration at which the percent inhibition equals 50.\nTo determine the dose of Lei-Dab7 to be tested, we compared the effect of Lei-Dab7 and tamapin in blocking human KCNN2 expressed in HEK293 cells using a thallium-based potassium ion channel assay. […] Based on the effective dose of tamapin in mitigating motor skill–learning deficits in PAE mice (15 μg/kg body weight via i.p.)[17] and higher brain uptake of therapeutics by intranasal delivery than by i.p. delivery, we chose a dose of 3.0 μg/kg body weight to test the effect of intranasal administration of Lei-Dab7.\nSupplementary Figure 3. Concentration-response relationships of Lei-Dab7 and Tamapin on the Inhibition of KCNN2 channels. (A, B) The concentration-response relationships of Lei-Dab7 (A) and Tamapin (B) on the inhibition of KCNN2 (SK2) channels examined by the thallium flux assay are presented. […]"}, "[4]": {"details": "i.p. administration, PAE mice; cited from earlier work", "text": "KCNN2 plays a key role in regulating neuronal excitability by controlling the medium afterhyperpolarization.[20] Previous studies have shown that KCNN2 blockers have therapeutic effects to improve learning and memory in several mouse and rat models of neuropsychiatric disorders associated with increased KCNN2 expression.[21–24]"}, "[5]": {"details": "pregnant CD-1 mice, i.p. 4.0 g/kg/day 25% ethanol at E16 and E17; from 30 minutes after injection at E16 to 1 hour after injection at E17; cited from earlier work", "method": "All mice (CD-1) used in this study were purchased from Charles River Laboratories and were maintained in-house on a light–dark cycle (lights on 6:00 AM to 6:00 PM) at a constant temperature (22 ± 1°C). Pregnant mice received i.p. injections of 25% ethanol in PBS at 4.0 g/kg/day or PBS only as the control at embryonic day (E) 16 and E17. The dam’s blood alcohol concentration ranges from approximately 140 to 300 mg/dL (from 30 minutes after injection at E16 to 1 hour after injection at E17).[35] All procedures were approved by the institutional animal care and use committee of the Children’s Nat ..."}},
  "note": "Positions of bridges follow the written chain, without caps; N, C: chain ends. Residues, ends and D or L forms follow the SMILES beside them. No end group written: not given here.",
  "data": [
    {"compound": "oxytocin", "values": [
      {"measurement": "efficacy, repeated doses", "setting": "[1]", "result": "inconsistent"},
      {"measurement": "efficacy, single administration", "setting": "[1]", "result": "promising"}
    ]},
    {"compound": "insulin", "values": [
      {"measurement": "memory effect", "setting": "[2]", "result": "improving memory"}
    ]},
    {"compound": "mouse [D-Leu-4]OB3 [synthetic leptin-like peptide]", "values": [
      {"measurement": "brain bioavailability, intranasal vs other methods (times)", "setting": "[3]", "result": 4, "unit": "times"}
    ]},
    {"compound": "apamin (CNCKAPETALCARRCQQH-NH2; disulfide 1-11, 3-15; UniProt P01500 28-45, looked up)", "values": [
      {"measurement": "KCNN2 selectivity in words", "setting": "KCNN2", "result": "less selective KCNN2 blocker"},
      {"measurement": "effect on learning", "setting": "rat", "result": "promote learning"},
      {"measurement": "KCNN (SK) channel blocking specificity", "setting": "KCNN (SK) channel", "result": "nonspecific KCNN (SK) channel blockers"}
    ]},
    {"compound": "scyllatoxin (AFCNLRMCQLSCRSLGLLGKCIGDKCECVKH; UniProt P16341 1-31, looked up)", "values": [
      {"measurement": "KCNN (SK) channel blocking specificity", "setting": "KCNN (SK) channel", "result": "nonspecific KCNN (SK) channel blockers"}
    ]},
    {"compound": "c1cc2cc(c1)C[n+]1ccc(c3ccccc31)NCc1ccc(cc1)CNc1cc[n+](c3ccccc13)C2", "note": "[UCL 1684]", "values": [
      {"measurement": "KCNN (SK) channel blocking specificity", "setting": "KCNN (SK) channel", "result": "nonspecific KCNN (SK) channel blockers"}
    ]},
    {"compound": "CC[C@H](C)[C@@H]1NC(=O)[C@@H]2CSSC[C@H](NC(=O)[C@H](Cc3ccccc3)NC(=O)[C@H](C)N)C(=O)N[C@@H](CC(N)=O)C(=O)N[C@@H](CC(C)C)C(=O)N[C@@H](CCCNC(=N)N)C(=O)N[C@@H](CCCNC(=N)N)C(=O)N[C@H]3CSSC[C@H](NC(=O)[C@H](CCC(=O)O)NC(=O)[C@H](CCC(=O)O)NC(=O)CNC1=O)C(=O)N[C@@H](CCCCN)C(=O)N[C@H](C(=O)N[C@H](C(=O)N1CCC[C@H]1C(=O)N[C@@H](Cc1ccc(O)cc1)C(N)=O)C(C)C)CSSC[C@H](NC(=O)[C@H](CO)NC(=O)[C@H](CC(C)C)NC(=O)[C@H](CCC(=O)O)NC3=O)C(=O)N[C@@H](CCCNC(=N)N)C(=O)N[C@@H](CO)C(=O)N[C@@H](CC(C)C)C(=O)NCC(=O)N[C@@H](CC(C)C)C(=O)N[C@@H](CC(C)C)C(=O)NCC(=O)N[C@@H](CCCCN)C(=O)N2", "note": "[tamapin] (H-AFCNLRRCELSCRSLGLLGKCIGEECKCVPY-NH2; disulfide 3-21, 8-26, 12-28)", "values": [
      {"measurement": "IC50", "setting": "human KCNN2", "result": 50, "unit": "nM"},
      {"measurement": "crosses the blood brain barrier", "setting": "[4]", "result": "crosses the blood brain barrier"}
    ]},
    {"compound": "CCO", "note": "[ethanol]", "values": [
      {"measurement": "dam's blood alcohol concentration", "setting": "[5]", "result": "140 to 300", "unit": "mg/dL"}
    ]},
    {"compound": "c1ccc2c(c1)c1cc[n+]2CCCCC[n+]2ccc(c3ccccc32)NCCCCCN1", "note": "[UCL 1848]", "values": [
      {"measurement": "KCNN (SK) channel blocking specificity", "setting": "KCNN (SK) channel", "result": "nonspecific KCNN (SK) channel blockers"}
    ]},
    {"compound": "CN1CCc2cc3c(cc2[C@H]1[C@@H]1OC(=O)c2c1ccc1c2OCO1)OCO3", "note": "[bicuculline]", "values": [
      {"measurement": "KCNN (SK) channel blocking specificity", "setting": "KCNN (SK) channel", "result": "nonspecific KCNN (SK) channel blockers"}
    ]}
  ]
}
